In the assay the test system is Erysiphe graminis. Kind of assay: Test for preventive effect on wheat powdery mildew. The note with it: wheat (Norin-61-go) seedlings, 500 ppm active ingredient, preventive treatment; diseased area of first leaves 10 days after inoculation with Erysiphe graminis. In kind it is in vivo. The gist of the method: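 Wheat seedlings (Norin-61-go), grown 8 days, were sprayed with wettable-powder solutions at 500 ppm active ingredient, air-dried, then inoculated by sprinkling Erysiphe graminis spores. Plants were kept at 20-25° C. Diseased area on first leaves was scored 10 days post-inoculation against a rating standard.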

This is an account of results in patent US6872729B2, “Pyrimidinylbenzimidazole and triazinylbenzimidazole derivatives and agricultural/horticultural fungicides” (Kumiai Chemical Industry Co., Ltd., priority 1998, dated 2005).

As to `CCCOc1nc(OCCC)nc(-n2c(C)nc3cc(Cl)ccc32)n1` [Compound I-580], the Biological effectiveness result is on record as “A (No diseased area)”. As to `Cc1nc2cc(Cl)ccc2n1-c1nc(OC(C)C)nc(OC(C)C)n1` [Compound I-592], the Biological effectiveness result is “A (No diseased area)”. Turning to `CC(C)Oc1nc(OC(C)C)nc(-n2c(C(F)(F)F)nc3cc(Cl)ccc32)n1` [Compound I-595], the Biological effectiveness entry was “B (Diseased area of less than 25%)”.

For the molecule `C=CCOc1nc(OCC=C)nc(-n2c(C)nc3cc(Cl)ccc32)n1` [Compound I-601], the Biological effectiveness entry was “A (No diseased area)”. As for `COc1ccnc(-n2cnc3cc(Cl)ccc32)n1` [Compound I-669], the entry is “B (Diseased area of less than 25%)”; as for `COc1ccnc(-n2cnc3cc(C)ccc32)n1` [Compound I-670], “B (Diseased area of less than 25%)”; as for `COc1ccnc(-n2c(C)nc3cc(Cl)ccc32)n1` [Compound I-671], “B (Diseased area of less than 25%)”. For `COc1ccnc(-n2c(C)nc3cc(C)ccc32)n1` [Compound I-672] the value was “B (Diseased area of less than 25%)”; for `COc1ccnc(-n2c(C)nc3ccc(Cl)cc32)n1` [Compound I-675], “B (Diseased area of less than 25%)”.

Take `COc1ccnc(-n2c(C(F)(F)F)nc3cc(Cl)ccc32)n1` [Compound I-682]: the Biological effectiveness result was “A (No diseased area)”. As for `COc1ccnc(-n2c(C(F)(F)F)nc3cc(C)ccc32)n1` [Compound I-683], the entry is “A (No diseased area)”. As for `CCOc1ccnc(-n2cnc3ccccc32)n1` [Compound I-690], the entry is “A (No diseased area)”; as for `CCOc1ccnc(-n2cnc3cc(Cl)ccc32)n1` [Compound I-692], “B (Diseased area of less than 25%)”; as for `CCOc1ccnc(-n2cnc3cc(C)ccc32)n1` [Compound I-693], “A (No diseased area)”.

Take `CCOc1ccnc(-n2c(C)nc3cc(Cl)ccc32)n1` [Compound I-694]: the Biological effectiveness entry is listed as “B (Diseased area of less than 25%)”.

As to `CCOc1ccnc(-n2c(C)nc3cc(C)ccc32)n1` [Compound I-695], the Biological effectiveness result is recorded as “A (No diseased area)”.

In the case of `CCOc1ccnc(-n2c(C(F)(F)F)nc3cc(Cl)ccc32)n1` [Compound I-704], the Biological effectiveness result is reported as “B (Diseased area of less than 25%)”. For the molecule `CCOc1ccnc(-n2c(C(F)(F)F)nc3cc(C)ccc32)n1` [Compound I-705], the Biological effectiveness result is “A (No diseased area)”. As for `COc1cc(C)nc(-n2cnc3ccccc32)n1` [Compound I-726], the Biological effectiveness entry was “B (Diseased area of less than 25%)”. As for `COc1cc(C)nc(-n2c(C)nc3cc(Cl)ccc32)n1` [Compound I-731], the entry is “B (Diseased area of less than 25%)”; as for `COc1nc(C)nc(-n2c(C)nc3cc(C)ccc32)n1` [Compound I-752], “A (No diseased area)”; as for `COc1nc(C)nc(-n2c(Cl)nc3cc(C)ccc32)n1` [Compound I-758], “A (No diseased area)”.

In the case of `COc1nc(C)nc(-n2c(C(F)(F)F)nc3cc(C)ccc32)n1` [Compound I-762], the Biological effectiveness result was “A (No diseased area)”.

Take `COc1nc(C)nc(-n2c(N)nc3cc(C)ccc32)n1` [Compound I-767]: the Biological effectiveness entry is on record as “B (Diseased area of less than 25%)”. For `CCOc1cc(C)nc(-n2cnc3ccccc32)n1` [Compound I-768] the value was “A (No diseased area)”; for `CCOc1cc(C)nc(-n2c(C)nc3ccccc32)n1` [Compound I-769], “A (No diseased area)”; for `CCOc1cc(C)nc(-n2c(Cl)nc3ccccc32)n1` [Compound I-771], “A (No diseased area)”. For `CCOc1cc(C)nc(-n2cnc3cc(C)ccc32)n1` [Compound I-772] the value was “A (No diseased area)”; for `CCOc1cc(C)nc(-n2c(C)nc3cc(C)ccc32)n1` [Compound I-775], “A (No diseased area)”; for `CCCOc1cc(C)nc(-n2cnc3ccccc32)n1` [Compound I-804], “A (No diseased area)”. As for `CCCOc1cc(C)nc(-n2cnc3cc(OC)ccc32)n1` [Compound I-805], the entry is “B (Diseased area of less than 25%)”; as for `CCCOc1cc(C)nc(-n2c(C)nc3ccccc32)n1` [Compound I-806], “B (Diseased area of less than 25%)”.

With `CCCOc1cc(C)nc(-n2cnc3cc(C)ccc32)n1` [Compound I-809], the Biological effectiveness entry is reported as “B (Diseased area of less than 25%)”. For `CCCOc1cc(C)nc(-n2c(Cl)nc3cc(OC)ccc32)n1` [Compound I-818] the value was “B (Diseased area of less than 25%)”; for `CCCOc1nc(C)nc(-n2c(C)nc3cc(C)ccc32)n1` [Compound I-831], “B (Diseased area of less than 25%)”. For `Cc1cc(OC(C)C)nc(-n2cnc3ccccc32)n1` [Compound I-839] the value was “A (No diseased area)”; for `Cc1cc(OC(C)C)nc(-n2c(C)nc3ccccc32)n1` [Compound I-840], “B (Diseased area of less than 25%)”. For `CCCCOc1cc(C)nc(-n2cnc3ccccc32)n1` [Compound I-872] the value was “B (Diseased area of less than 25%)”; for `C=CCOc1cc(C)nc(-n2cnc3ccccc32)n1` [Compound I-883], “A (No diseased area)”; for `C=CCOc1cc(C)nc(-n2c(C)nc3ccccc32)n1` [Compound I-885], “B (Diseased area of less than 25%)”.

With `C#CCOc1cc(C)nc(-n2cnc3ccccc32)n1` [Compound I-894], the Biological effectiveness result is on record as “B (Diseased area of less than 25%)”. For `C#CCOc1cc(C)nc(-n2cnc3cc(C)ccc32)n1` [Compound I-895] the value was “B (Diseased area of less than 25%)”; for `C#CCOc1cc(C)nc(-n2c(C(F)(F)F)nc3cc(C)ccc32)n1` [Compound I-903], “B (Diseased area of less than 25%)”; for `C#CCOc1cc(C)nc(-n2c(N)nc3cc(C)ccc32)n1` [Compound I-904], “B (Diseased area of less than 25%)”. For `CSc1nc(C)nc(-n2c(C)nc3cc(C)ccc32)n1` [Compound I-915] the value was “A (No diseased area)”; for `CCCc1cc(OC)nc(-n2cnc3ccccc32)n1` [Compound I-958], “B (Diseased area of less than 25%)”; for `CCCc1cc(OC)nc(-n2c(C)nc3ccccc32)n1` [Compound I-959], “A (No diseased area)”.

Take `CCCc1cc(OC)nc(-n2c(Cl)nc3ccccc32)n1` [Compound I-960]: the Biological effectiveness result is on record as “A (No diseased area)”. As to `CCCc1cc(OC)nc(-n2cnc3cc(C)ccc32)n1` [Compound I-962], the Biological effectiveness result is “A (No diseased area)”. As for `CCCc1cc(OC)nc(-n2c(C)nc3cc(Cl)ccc32)n1` [Compound I-964], the entry is “B (Diseased area of less than 25%)”.
